How the values were obtained:
Assay type in all cases: in vivo
[1] = test system: organophosphorous agent resistant two-spotted spider mites; assay: Effect on Two-spotted Spider Mite (spray on kidney bean leaves); conditions: 125 ppm, water dispersible powder of Formulation Example 1 sprayed, 17 female adults, 25° C., 65% humidity, 3 days
Outline: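 Mortality of adult females counted after 3 days at 25 °C and 65% humidity, following a 125 ppm spray of wettable-powder dilution onto infested 7–10-day-old bean seedlings (17 mites per leaf). Two replicates.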

army worms = assay: Effect on Army Worm (artificial feed test); conditions: 10 μg of compound on 0.2 ml artificial feed, second instar, 25° C., 5 days
Protocol: Test feeds were prepared by filling plastic test tubes (capacity of 1.4 ml) with 0.2 ml of a commercial artificial feed (Insecta LFS, manufactured by Nosan Corporation). Each of 1% chemical compound solutions was prepared by using DMSO (containing 0.5% tween 20), which was then dropped into the surface of the feed in amount of 10 μg of the respective chemical compounds. 2 army worms, each of which was in the second instar, were inoculated into each of the test tubes, which were then sealed by their plastic caps. After they were left at 25° C. for 5 days, the rate of killed army worms and their feed consumptions were investigated. The test was repeated twice. […] 1-8, 1-9, 1-13, 1-15, 1-17, 1-22, 1-23, 1-27, 1-39, 1-45, 1-46, 1-59, 1-69, 1-72, 1-74, 1-75, 1-79, 1-80, 1-83, 1-95, 1-97, 1-981-100, 1-105, 1-108, 1-114, 1-133, 1-140, 1-147, 1-153, 1-165, 1-166, 1-181, 1-182, 1-183, 1-184, 1-187, 1-189, 1-190,

[2] = test system: acaricide resistant citrus red mites; assay: Effect on Citrus Red Mite (spray on mandarin orange leaves); conditions: 31 ppm, emulsifiable concentrate of Formulation Example 2 sprayed, 10 female adults, 25° C., 65% humidity
Protocol: Effect on Citrus Red Mite
10 female adults of acaricide resistant citrus red mites were inoculated onto leaves of a mandarin orange placed on dishes, onto which each of liquid agents, diluted with water so as to adjust the respective concentration of the chemical compounds to 31 ppm according to the formulation of the emulsifiable concentrate shown in the aforementioned Formulation Example 2, was sprayed by using a rotating sparge tower. After they were left in a thermostatic chamber at 25° C. in 65% humidity for 3 days, and were then removed from the dishes, eggs laid for 3 days were investigated whether they could grow to adults or not on the eleventh day. As the results, the following chemical compounds killed 100% of the adults. 1-13, 1-15, 1-22, 1-27, 1-45, 1-54, 1-59, 1-63, 1-66, 1-69, 1-71, 1-72, 1-75, 1-80, 1-88, 1-89, 1-92, 1-93, 1-94, 1-97, 1-98, 1-100, 1-102, 1-105, 1-108, 1-133, 1-136, 1-142, 1-153, 1-181, 1-183, 1-186, 1-187, 1-188, 1-189, 1-190, 1-191,

Compound	rate of killed adults [1] [%]	killed 100% of the army worms, or inhibited their feed consumptions, in comparison with a solvent control area, to 10% or less (effective) (army worms)	killed ... of the adults (eggs laid for 3 days investigated whether they could grow to adults on the eleventh day) [2] [%]
CC(C)(C)COc1cc(C(F)(F)F)ccc1OC1CCN(c2ccc(C(F)(F)F)cn2)CC1 [1-114]	100	effective	
FC(F)(F)c1ccc(N2CCC(Oc3ccc(C(F)(F)F)cc3Br)CC2)nc1 [1-22]	100	effective	100
COC(C)OCc1cc(C(F)(F)F)ccc1OC1CCN(c2ccc(C(F)(F)F)cn2)CC1C (centres unmarked) [1-189]	100	effective	100
FC(F)(F)Oc1ccc(OC2CCN(c3ccc(C(F)(F)F)cn3)CC2)cc1 [1-133]	100	effective	100
FC(F)(F)c1ccc(N2CCC(Oc3ccc(Br)c(C(F)(F)F)c3)CC2)nc1 [1-23, 4-[4-bromo-3-(trifluoromethyl)phenoxy]-1-[5-(trifluoromethyl)-2-pyridyl]-piperidine]	100	effective	
FC(F)(F)c1ccc(OC2CCN(c3ncc(C(F)(F)F)cc3Cl)CC2)cc1 [1-83]		effective	
Fc1cc(C(F)(F)F)ccc1OC1CCN(c2ccc(C(F)(F)F)cn2)CC1 [1-8]	100	effective	
FC(F)(F)Sc1ccc(OC2CCN(c3ccc(C(F)(F)F)cn3)CC2)cc1 [1-147]	100	effective	
FC(F)(F)c1ccc(N2CCC(Oc3ccc(C(F)(F)F)cc3OCCCl)CC2)nc1 [1-140]	100	effective	
FC(F)(F)c1ccc(N2CCC(Oc3cc(C(F)(F)F)cc(C(F)(F)F)c3)CC2)nc1 [1-79]	100	effective	
CCCOc1cc(C(F)(F)F)ccc1OC1CCN(c2ccc(C(F)(F)F)cn2)CC1(C)C(=O)OCC (centres unmarked) [1-95]		effective	
Cc1cc(OC(F)(F)F)ccc1OC1CCN(c2ccc(C(F)(F)F)cn2)CC1 [1-46]	100	effective	
FC(F)(F)c1ccc(N2CCC(Oc3c(Cl)cc(OCC=C(Cl)Cl)c(Cl)c3Cl)CC2)nc1 [1-166]		effective	
CCCOCc1cc(C(F)(F)F)ccc1OC1CCN(c2ccc(C(F)(F)F)cn2)CC1 [1-182]	100	effective	
COCOC(C)c1cc(C(F)(F)F)ccc1O[C@@H]1[C@@H]2CC[C@H]1CN(c1ccc(C(F)(F)F)cn1)C2 (some centres unmarked) [5-73]	100		100
CC=CCOc1cc(C(F)(F)F)ccc1OC1C2CCC1CN(c1ccc(C(F)(F)F)cn1)C2 (mixture of isomers) [5-175]	100		100
CCc1cc(Cl)ccc1OC1CCN(c2ccc(C(F)(F)F)cn2)CC1 [1-54]	100		100
Fc1ccc(OC2CCN(c3ccc(C(F)(F)F)cn3)CC2)cc1C(F)(F)F [1-9]	100	effective	

Compound	rate of killed adults [1] [%]	killed 100% of the army worms, or inhibited their feed consumptions, in comparison with a solvent control area, to 10% or less (effective) (army worms)	killed ... of the adults (eggs laid for 3 days investigated whether they could grow to adults on the eleventh day) [2] [%]
COCOC(C)c1cc(C(F)(F)F)ccc1OC1CCN(c2ccc(C(F)(F)F)cn2)CC1 (centres unmarked) [1-184]	100	effective	
FC(F)(Br)Oc1ccc(OC2CCN(c3ccc(C(F)(F)F)cn3)CC2)cc1 [1-136]	100		100
CCOc1cc(C(F)(F)F)ccc1OC1CCN(c2ccc(C(F)(F)F)cn2)CC1 [1-89]	100		100
C=CCc1cc(C(F)(F)F)ccc1OC1CCN(c2ccc(C(F)(F)F)cn2)CC1 [1-74]	100	effective	
CCC(OC)OCc1cc(C(F)(F)F)ccc1OC1C2CCC1CN(c1ccc(C(F)(F)F)cn1)C2 (centres unmarked) [5-222]	100		100
CCCOc1cc(C(F)(F)F)ccc1OC1C2CCC1CN(c1ccc(C(F)(F)F)cn1)C2 (stereo not drawn) [5-97, 8β-[2-propoxy-4-(trifluoromethyl)phenoxy]-3-[5-(trifluoromethyl)-2-pyridyl]-3-azabicyclo[3.2.1]octane]	100		100
FC(F)(F)c1ccc(N2CC3CCC(C2)C3Oc2ccc(C(F)(F)F)cc2C2CCCO2)nc1 (centres unmarked) [5-237]	100		100
CC1COC(c2cc(C(F)(F)F)ccc2O[C@@H]2[C@@H]3CC[C@H]2CN(c2ccc(C(F)(F)F)cn2)C3)N1 (some centres unmarked) [5-259]	100		100
CC(C)COc1cc(C(F)(F)F)ccc1OC1CCN(c2ccc(C(F)(F)F)cn2)CC1 [1-102]	100		100
COCOc1cc(C(F)(F)F)ccc1OC1C2CCCC1CN(c1ccc(C(F)(F)F)cn1)C2 (stereo not drawn) [7-100, 9β-[2-methoxymethoxy-4-(trifluoromethyl)phenoxy]-3-[5-(trifluoromethyl)-2-pyridyl]-3-azabicyclo[3.3.1]nonane]	100		100
CCCOc1cc(C(F)(F)F)ccc1OC1CCN(c2ccc(C)cn2)CC1 [1-94]	100		100
FC(F)(F)c1cnc(N2CCC(Oc3c(Cl)cc(OCC=C(Cl)Cl)c(Cl)c3Cl)CC2)c(Cl)c1 [1-165]		effective	
FC(F)(F)c1ccc(N2CCC(Oc3c(Cl)cc(C(F)(F)F)cc3Br)CC2)nc1 [1-17]	100	effective	
CC(C)CC(O)c1cc(C(F)(F)F)ccc1OC1C2CCC1CN(c1ccc(C(F)(F)F)cn1)C2 (centres unmarked) [5-239]	100		100
COCOc1cc(C(F)(F)F)ccc1O[C@@H]1[C@@H]2CC[C@H]1CN(c1ccc(C#N)cn1)C2 [5-111]	100		100
O=[N+]([O-])c1ccc(OC2CCN(c3ccc(C(F)(F)F)cn3)CC2)cc1C(F)(F)F [1-39, 4-[4-nitro-3-(trifluoromethyl)phenoxy]-1-[5-(trifluoromethyl)-2-pyridyl]-piperidine]		effective	
C=C(C)COc1cc(C(F)(F)F)ccc1OC1C2CCC1CN(c1ccc(C(F)(F)F)cn1)C2 (centres unmarked) [5-174]	100		100

Source: patent US8101768B2, “Cyclic amine compound and pest control agent” (Nippon Soda Co., Ltd., priority 2004, dated 2012)
